# Data as given in ChEMBL document CHEMBL1765070, “Structure-based design of potent and selective 3-phosphoinositide-dependent kinase-1 (PDK1) inhibitors” (J Med Chem, 2011).
# Tests used:
# [1] = molecular target: T1, TGF-beta receptor type-1 (Homo sapiens, UniProt P36897); experiment: Inhibition of ALK5; details: read-out: pIC50 (converted)
# T1 sequence (P36897 whole entry): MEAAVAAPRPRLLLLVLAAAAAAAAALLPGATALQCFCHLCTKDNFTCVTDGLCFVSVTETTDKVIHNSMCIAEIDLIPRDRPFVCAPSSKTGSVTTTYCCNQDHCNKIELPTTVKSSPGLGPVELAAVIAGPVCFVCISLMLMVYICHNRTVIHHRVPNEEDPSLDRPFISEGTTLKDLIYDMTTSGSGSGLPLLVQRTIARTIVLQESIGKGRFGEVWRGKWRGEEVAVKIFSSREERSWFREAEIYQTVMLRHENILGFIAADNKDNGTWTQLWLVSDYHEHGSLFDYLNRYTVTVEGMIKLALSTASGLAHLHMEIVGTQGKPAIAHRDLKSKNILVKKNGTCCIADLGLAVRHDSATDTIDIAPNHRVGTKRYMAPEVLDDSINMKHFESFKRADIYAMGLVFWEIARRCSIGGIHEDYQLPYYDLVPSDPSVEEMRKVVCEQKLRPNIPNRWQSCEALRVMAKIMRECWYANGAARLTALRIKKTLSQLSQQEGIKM
# [2] = molecular target: T2, Aurora kinase A (Homo sapiens, UniProt O14965); experiment: Inhibition of aurora A
# T2 sequence (O14965 whole entry): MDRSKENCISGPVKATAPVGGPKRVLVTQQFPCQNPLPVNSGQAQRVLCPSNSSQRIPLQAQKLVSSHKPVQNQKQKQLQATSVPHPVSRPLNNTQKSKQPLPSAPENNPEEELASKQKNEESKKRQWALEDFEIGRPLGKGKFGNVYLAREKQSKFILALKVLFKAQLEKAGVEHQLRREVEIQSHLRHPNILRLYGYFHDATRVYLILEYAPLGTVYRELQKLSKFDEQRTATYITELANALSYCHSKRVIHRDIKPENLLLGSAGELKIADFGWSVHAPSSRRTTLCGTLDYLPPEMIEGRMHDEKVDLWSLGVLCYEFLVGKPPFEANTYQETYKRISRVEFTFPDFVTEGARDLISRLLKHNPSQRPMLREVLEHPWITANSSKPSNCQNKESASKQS
# [3] = molecular target: Aurora kinase B (Homo sapiens, UniProt Q96GD4); experiment: Inhibition of aurora B
# [4] = molecular target: Rho-associated protein kinase 1 (Homo sapiens, UniProt Q13464); experiment: Inhibition of ROCK1
# [5] = molecular target: T3, 3-phosphoinositide-dependent protein kinase 1 (Homo sapiens, UniProt O15530); experiment: Inhibition of PDK1
# T3 sequence (O15530 whole entry): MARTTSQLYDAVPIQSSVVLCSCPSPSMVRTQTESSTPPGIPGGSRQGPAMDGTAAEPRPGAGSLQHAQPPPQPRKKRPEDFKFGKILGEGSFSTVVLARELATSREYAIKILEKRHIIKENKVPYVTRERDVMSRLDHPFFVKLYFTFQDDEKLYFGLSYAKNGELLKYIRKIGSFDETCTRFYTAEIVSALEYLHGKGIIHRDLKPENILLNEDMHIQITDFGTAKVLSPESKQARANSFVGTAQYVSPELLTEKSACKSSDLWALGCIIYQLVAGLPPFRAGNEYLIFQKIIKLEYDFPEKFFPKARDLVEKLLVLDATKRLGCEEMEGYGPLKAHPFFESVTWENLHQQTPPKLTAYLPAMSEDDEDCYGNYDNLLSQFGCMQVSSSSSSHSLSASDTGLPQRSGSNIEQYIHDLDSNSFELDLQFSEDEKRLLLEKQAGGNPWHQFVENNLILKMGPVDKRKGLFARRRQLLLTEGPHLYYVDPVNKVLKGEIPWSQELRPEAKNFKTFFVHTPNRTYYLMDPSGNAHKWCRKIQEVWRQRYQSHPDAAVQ
# Sequence of Rho-associated protein kinase 1 (Q13464 whole entry): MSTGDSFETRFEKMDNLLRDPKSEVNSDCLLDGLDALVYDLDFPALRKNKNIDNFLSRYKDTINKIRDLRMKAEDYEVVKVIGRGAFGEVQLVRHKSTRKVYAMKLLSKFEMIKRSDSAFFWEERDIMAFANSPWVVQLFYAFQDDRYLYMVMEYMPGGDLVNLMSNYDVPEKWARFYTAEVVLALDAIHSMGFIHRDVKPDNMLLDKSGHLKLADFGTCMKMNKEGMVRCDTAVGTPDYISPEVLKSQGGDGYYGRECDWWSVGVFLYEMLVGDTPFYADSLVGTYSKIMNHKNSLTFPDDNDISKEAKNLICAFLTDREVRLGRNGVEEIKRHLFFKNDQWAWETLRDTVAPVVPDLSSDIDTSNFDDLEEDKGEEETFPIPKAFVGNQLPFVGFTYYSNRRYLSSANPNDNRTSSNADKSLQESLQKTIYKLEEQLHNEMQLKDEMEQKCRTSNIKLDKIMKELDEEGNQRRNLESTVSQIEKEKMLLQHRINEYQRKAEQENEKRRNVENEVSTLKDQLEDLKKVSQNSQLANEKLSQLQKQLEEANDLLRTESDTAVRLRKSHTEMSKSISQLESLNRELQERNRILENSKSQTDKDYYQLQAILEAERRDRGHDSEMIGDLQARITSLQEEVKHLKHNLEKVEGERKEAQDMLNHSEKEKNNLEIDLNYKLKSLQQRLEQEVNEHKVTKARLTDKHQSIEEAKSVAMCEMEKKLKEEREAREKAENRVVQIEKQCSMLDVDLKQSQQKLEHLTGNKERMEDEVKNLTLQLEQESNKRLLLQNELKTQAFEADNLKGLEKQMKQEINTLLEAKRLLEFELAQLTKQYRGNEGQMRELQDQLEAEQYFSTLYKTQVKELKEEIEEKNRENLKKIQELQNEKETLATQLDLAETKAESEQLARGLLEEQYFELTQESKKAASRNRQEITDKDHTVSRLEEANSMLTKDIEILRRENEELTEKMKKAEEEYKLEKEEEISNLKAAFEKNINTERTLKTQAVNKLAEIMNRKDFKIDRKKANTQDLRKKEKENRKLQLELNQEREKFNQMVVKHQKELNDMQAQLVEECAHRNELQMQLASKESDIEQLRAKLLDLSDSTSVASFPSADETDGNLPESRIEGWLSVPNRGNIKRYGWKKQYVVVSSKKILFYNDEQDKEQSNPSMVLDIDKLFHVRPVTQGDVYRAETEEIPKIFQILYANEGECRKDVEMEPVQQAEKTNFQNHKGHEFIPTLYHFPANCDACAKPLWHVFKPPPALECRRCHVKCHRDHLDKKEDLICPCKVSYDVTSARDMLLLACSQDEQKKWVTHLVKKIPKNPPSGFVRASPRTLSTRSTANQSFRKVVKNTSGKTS
# Sequence of Aurora kinase B (Q96GD4 whole entry): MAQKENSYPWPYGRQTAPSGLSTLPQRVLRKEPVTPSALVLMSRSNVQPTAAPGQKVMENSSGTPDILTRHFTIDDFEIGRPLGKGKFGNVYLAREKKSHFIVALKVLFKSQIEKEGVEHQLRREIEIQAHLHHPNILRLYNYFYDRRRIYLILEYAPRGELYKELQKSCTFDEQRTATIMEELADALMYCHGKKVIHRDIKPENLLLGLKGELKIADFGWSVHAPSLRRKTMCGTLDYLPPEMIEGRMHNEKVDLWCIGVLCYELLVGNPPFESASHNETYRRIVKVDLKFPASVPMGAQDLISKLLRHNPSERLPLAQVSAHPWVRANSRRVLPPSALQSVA
IC50 [1],IC50 [2],IC50 [3],IC50 [4],IC50 [5],Compound
7.94 µM,3.98 µM,12.6 µM,3.98 µM,–,Cc1cc(-c2ccc3c(N)n[nH]c3c2)nc(N)n1
> 10 µM,> 10 µM,25.1 µM,15.8 µM,–,C[C@H]1COCCN1c1cc(-c2ccc3c(N)n[nH]c3c2)nc(N)n1
> 10 µM,1.58 µM,5.01 µM,> 10 µM,25.1 nM,CC(C)(C)OC(=O)N[C@@H]1CCCN(c2cc(-c3ccc4c(N)n[nH]c4c3)nc(N)n2)C1
3.16 µM,1.58 µM,2 µM,> 10 µM,200 nM,Nc1nc(-c2ccccc2)cc(-c2ccc3c(N)n[nH]c3c2)n1
7.94 µM,> 10 µM,25.1 µM,> 10 µM,126 nM,C[C@@H]1CCCCN1c1cc(-c2ccc3c(N)n[nH]c3c2)nc(N)n1
> 10 µM,7.94 µM,1.58 µM,3.16 µM,126 nM,Nc1nc(-c2ccc3c(N)n[nH]c3c2)cc(N2CCC[C@@H](C(=O)Nc3ccccc3)C2)n1
–,0.501 µM,1 µM,–,–,C[C@H]1CC[C@@H](NC(=O)OC(C)(C)C)CN1c1cc(-c2ccc3c(N)[nH]nc3c2)nc(N)n1
0.501 µM,2.51 µM,10 µM,> 10 µM,–,CCNc1cc(-c2ccc3c(N)[nH]nc3c2)nc(N)n1
–,–,–,–,12600 nM,COc1nccc(-c2ccc3c(N)n[nH]c3c2)n1
> 10 µM,–,5.01 µM,–,–,C[C@H]1CC[C@@H](C(=O)Nc2ccccc2)CN1c1cc(-c2ccc3c(N)n[nH]c3c2)nc(N)n1
> 10 µM,–,2 µM,> 10 µM,–,C[C@@H]1CC[C@@H](C(=O)Nc2ccccc2)CN1c1cc(-c2ccc3c(N)n[nH]c3c2)nc(N)n1 (racemic)
> 10 µM,1.26 µM,0.398 µM,> 10 µM,50.1 nM,CC(C)(C)OC(=O)NC1CCCN(c2cc(-c3ccc4c(N)n[nH]c4c3)nc(N)n2)C1 (racemic)
> 10 µM,1.26 µM,0.0251 µM,> 10 µM,63.1 nM,Nc1nc(-c2ccc3c(N)n[nH]c3c2)cc(N2CCCC(NC(=O)c3ccccc3)C2)n1 (racemic)
0.501 µM,2 µM,15.8 µM,> 10 µM,126 nM,CC(C)Nc1cc(-c2ccc3c(N)n[nH]c3c2)nc(N)n1
> 10 µM,> 10 µM,> 10 µM,> 10 µM,251 nM,Nc1nc(-c2ccc3c(N)n[nH]c3c2)cc(N2CCCC2)n1
> 10 µM,5.01 µM,> 10 µM,> 10 µM,–,CC[C@@H]1COCCN1c1cc(-c2ccc3c(N)n[nH]c3c2)nc(N)n1
–,–,–,–,20000 nM,CN(C)c1nccc(-c2ccc3c(N)n[nH]c3c2)n1
> 10 µM,> 10 µM,> 10 µM,> 10 µM,126 nM,Nc1nc(-c2ccc3c(N)n[nH]c3c2)cc(N2CCC[C@H](C(=O)NC3CCCC3)C2)n1
> 10 µM,2 µM,0.0501 µM,> 10 µM,–,C[C@@H]1CC[C@H](NC(=O)OC(C)(C)C)CN1c1cc(-c2ccc3c(N)n[nH]c3c2)nc(N)n1

IC50 [1],IC50 [2],IC50 [3],IC50 [4],IC50 [5],Compound
> 10 µM,6.31 µM,0.316 µM,> 10 µM,1000 nM,CC(C)(C)OC(=O)N[C@H]1CCCN(c2cc(-c3ccc4c(N)n[nH]c4c3)nc(N)n2)C1
> 10 µM,12.6 µM,25.1 µM,15.8 µM,–,C[C@@H]1COCCN1c1cc(-c2ccc3c(N)[nH]nc3c2)nc(N)n1
6.31 µM,–,1 µM,0.2 µM,–,C[C@@H]1CC[C@H](C(=O)Nc2ccccc2)CN1c1cc(-c2ccc3c(N)[nH]nc3c2)nc(N)n1
> 10 µM,> 10 µM,3.98 µM,5.01 µM,63.1 nM,Nc1nc(-c2ccc3c(N)n[nH]c3c2)cc(N2CCC[C@H](C(=O)NC3CCCCC3)C2)n1
1.58 µM,0.398 µM,–,1.58 µM,398 nM,Nc1nccc(-c2ccc3c(N)n[nH]c3c2)n1
–,–,–,–,7940 nM,CCNc1nccc(-c2ccc3c(N)n[nH]c3c2)n1
> 10 µM,12.6 µM,7.94 µM,15.8 µM,200 nM,CC(C)[C@@H]1COCCN1c1cc(-c2ccc3c(N)n[nH]c3c2)nc(N)n1
> 10 µM,1.26 µM,3.16 µM,0.794 µM,–,Nc1nc(-c2ccc3c(N)[nH]nc3c2)cc(N2CCO[C@H](C(=O)Nc3ccccc3)C2)n1
0.398 µM,2.51 µM,7.94 µM,6.31 µM,–,Nc1nc(NC2CCCC2)cc(-c2ccc3c(N)n[nH]c3c2)n1
2 µM,3.16 µM,7.94 µM,> 10 µM,251 nM,CC(C)c1cc(-c2ccc3c(N)n[nH]c3c2)nc(N)n1
> 10 µM,> 10 µM,> 10 µM,> 10 µM,1000 nM,Nc1nc(-c2ccc3c(N)n[nH]c3c2)cc(N2CCO[C@@H](C(=O)Nc3ccccc3)C2)n1
–,–,–,–,1000 nM,CNc1nccc(-c2ccc3c(N)n[nH]c3c2)n1
> 10 µM,0.794 µM,0.158 µM,> 10 µM,–,C[C@H]1CC[C@@H](NC(=O)OC(C)(C)C)CN1c1cc(-c2ccc3c(N)[nH]nc3c2)nc(N)n1 (racemic)
5.01 µM,> 10 µM,> 10 µM,> 10 µM,501 nM,CN(C)c1cc(-c2ccc3c(N)n[nH]c3c2)nc(N)n1
> 10 µM,7.94 µM,1.26 µM,2 µM,31.6 nM,Nc1nc(-c2ccc3c(N)n[nH]c3c2)cc(N2CCC[C@H](C(=O)Nc3ccccc3)C2)n1
> 10 µM,0.2 µM,0.316 µM,0.158 µM,–,C[C@@H]1CO[C@H](C(=O)Nc2ccccc2)CN1c1cc(-c2ccc3c(N)n[nH]c3c2)nc(N)n1
0.0251 µM,0.2 µM,3.16 µM,2.51 µM,20 nM,Nc1nc(Nc2ccccc2)cc(-c2ccc3c(N)n[nH]c3c2)n1
0.398 µM,3.16 µM,12.6 µM,7.94 µM,79.4 nM,CNc1cc(-c2ccc3c(N)n[nH]c3c2)nc(N)n1
3.16 µM,6.31 µM,7.94 µM,5.01 µM,251 nM,COc1cc(-c2ccc3c(N)n[nH]c3c2)nc(N)n1

Compound,IC50 [1],IC50 [2],IC50 [3],IC50 [4],IC50 [5]
Nc1nc(-c2ccc3c(N)[nH]nc3c2)cc(N2CCOCC2)n1,> 10 µM,> 10 µM,> 10 µM,> 10 µM,–
Nc1nc(-c2ccc3c(N)n[nH]c3c2)cc(N2CCCCC2)n1,> 10 µM,> 10 µM,> 10 µM,> 10 µM,251 nM
